Experimental data reported in patent US3954865A, “N-cycloalkyl substituted-10,11-dihydro 5H-dibenzo[a,d] cyclohepten-5-imines” (E. I. Du Pont de Nemours and Company, priority 1974, dated 1976).

Key:
[1] = system: uptake of dopamine by the corpus striatum; experiment: inhibition of uptake of labelled dopamine by rat corpus striatum homogenate (procedure of Coyle et al); type: biochemical; conditions: for Ratio Hypothalmus/Striatum: ratio of ID50 values, hypothalamus over striatum
Method: (§1) Many compounds which are active in the central nervous system of mammals appear to inhibit the uptake of catecholamines by mammalian brain tissues. […] The compounds of the invention have the ability of selectively inhibiting the uptake of dopamine by the corpus striatum. This ability was measured by a test procedure following that of Coyle et al supra. Rat brain slices from the corpus striatum and hypothalamus are separately homogenized and incubated with predetermined amounts of labelled norepinephrine or dopamine and a compound of the invention. After a suitable incubation period the amount of labelled catecholamine taken up by the brain homogenate is determined.

[2] = system: uptake of norepinephrine by the hypothalamus; experiment: inhibition of uptake of labelled norepinephrine by rat hypothalamus homogenate (procedure of Coyle et al); type: biochemical
Method: as §1

Row | SMILES | inhibiting the uptake of dopamine, selectivity in words ([1]; dopamine versus norepinephrine uptake) | Ratio Hypothalmus/Striatum [1] | inhibiting the uptake of norepinephrine, in words [2]
1 | c1ccc2c(c1)CCc1ccccc1C2=NCC1CC1 [Example 1, N-cyclopropylmethyl-10,11-dihydro-5H-dibenzo[a,d]cyclohepten-5-imine] | almost exclusive effect inhibiting the uptake of dopamine | 20 | without significantly inhibiting the uptake of norepinephrine
2 | c1ccc2c(c1)CCc1ccccc1C2=NC1CC1 [Example 2, N-Cyclopropyl-10,11-dihydro-5H-dibenzo[a,d]cyclohepten-5-imine] |  | > 6 | 
3 | Clc1ccc2c(c1)C(=NCC1CC1)c1ccccc1CC2 [Example 4, 3-Chloro-N-cyclopropylmethyl-10,11-dihydro-5H-dibenzocyclohepten-5-imine] |  | 2 | 
4 | CC(C)=C1CC(CN=C2c3ccccc3CCc3ccccc32)C1 (stereo not shown) [Example 5, N-(3-Isopropylidenecyclobutylmethyl)-10,11-dihydro[a,d]cyclohepten-5-imine] |  | 1.25 | 
5 | CC(C)N=C1c2ccccc2CCc2ccccc21 [Isopropyl, reference compound] |  | 0.25 | 
